Measured values from PubChem BioAssay (NCI).
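A five-concentration, 48-hour dose response in 96-well plates underlies each endpoint, interpolated linearly between surrounding concentrations. Here, GI50 denotes the concentration required for 50% inhibition of growth. TGI: concentration producing complete growth inhibition.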

Experiments:
Experiment in all cases: growth of human tumour cells (NCI), 48 h
SN12C renal = test system: SN12C renal
U251 CNS = test system: U251 CNS
NCI-H23 lung = test system: NCI-H23 lung
OVCAR-5 ovarian = test system: OVCAR-5 ovarian
M14 melanoma = test system: M14 melanoma
SNB-19 CNS = test system: SNB-19 CNS
HCT-15 colon = test system: HCT-15 colon
CAKI-1 renal = test system: CAKI-1 renal
RXF 393 renal = test system: RXF 393 renal

Row | SMILES | TGI (SN12C renal) | TGI (U251 CNS) | TGI (NCI-H23 lung) | TGI (OVCAR-5 ovarian) | TGI (M14 melanoma) | TGI (SNB-19 CNS) | TGI (HCT-15 colon) | TGI (CAKI-1 renal) | TGI (RXF 393 renal) | GI50 (SN12C renal) | GI50 (U251 CNS) | GI50 (NCI-H23 lung) | GI50 (OVCAR-5 ovarian) | GI50 (M14 melanoma) | GI50 (SNB-19 CNS) | GI50 (RXF 393 renal) | GI50 (HCT-15 colon) | GI50 (CAKI-1 renal)
1 | COc1ccc(-c2c(N)[n+]([O-])c3ccccc3[n+]2[O-])cc1OC | > 100 µM | > 100 µM | > 100 µM | > 100 µM | > 100 µM | > 100 µM | > 100 µM | > 100 µM | – | – | – | – | – | – | – | – | – | –
2 | Cc1c2c(cc3c(=O)ccn(CCN(C)C)c13)c(=O)ccn2CCN(C)C | 33.3 µM | 23 µM | 33.9 µM | 42.3 µM | 25 µM | 35.7 µM | 24.1 µM | 67.8 µM | 28.9 µM | – | – | – | – | – | – | – | – | –
3 | C=C1C(=O)O[C@H]2[C@H]1CC/C(COC(=O)c1ccccc1)=C\CC[C@@]1(C)O[C@@H]21 | 3.26 µM | 3.37 µM | 4.16 µM | 5.36 µM | 3.27 µM | 11.6 µM | 2.3 µM | – | 2.58 µM | 1.39 µM | 1.67 µM | 1.82 µM | 2 µM | 1.32 µM | 2.61 µM | 1.14 µM | 0.8 µM | –
4 | COc1cc(Nc2nc3ccc(C(F)(F)F)cc3nc2-c2ccccc2)cc(OC)c1OC | > 100 µM | > 100 µM | > 100 µM | 53.1 µM | > 100 µM | – | > 100 µM | 79.4 µM | > 100 µM | – | – | – | – | – | – | – | – | –
5 | Cc1ccc2c(c1)CNc1ccc(C)cc1CN2 | > 100 µM | > 100 µM | > 100 µM | > 100 µM | > 100 µM | – | > 100 µM | > 100 µM | – | – | – | – | – | – | – | – | – | –
6 | O=C(/C=C/c1ccccc1Cl)c1ccc(Cl)cc1Cl | 32.2 µM | 25.5 µM | 37.9 µM | 30.8 µM | 32 µM | 28.8 µM | 25.4 µM | 28.4 µM | – | – | – | – | – | – | – | – | – | –
7 | C1=Nc2ccccc2C=Nc2ccccc2C=Nc2ccccc2C=Nc2ccccc21.[Cl-].[Pt+2] | > 100 µM | 27.5 µM | – | – | > 100 µM | > 100 µM | 83.1 µM | 62.5 µM | – | 28.4 µM | 10.5 µM | – | – | 30.2 µM | 42.8 µM | – | 22.3 µM | 31.4 µM
8 | Clc1ccc(Nc2ccnc(NCCCNc3ccnc4cc(Cl)ccc34)n2)cc1 | – | 2.91 µM | 3.53 µM | 3.09 µM | – | – | – | 2.83 µM | – | – | 1.48 µM | 1.79 µM | 1.68 µM | – | – | – | – | 1.43 µM
9 | c1ccc(COC2(OCc3ccccc3)CC3OC2C2NN=NC32)cc1 (stereo not drawn) | > 10 µM | 32.6 µM | 34.3 µM | > 100 µM | 39.4 µM | – | 90.6 µM | > 100 µM | > 100 µM | – | – | – | – | – | – | – | – | –
10 | COc1cc2c(c(OC)c1OC)-c1ccc(OC)c(=O)cc1[C@@H](N(C)C=O)CC2 | > 100 µM | > 4.68 µM | > 100 µM | > 100 µM | > 65.6 µM | > 100 µM | > 100 µM | > 100 µM | – | – | – | – | – | – | – | – | – | –
11 | N#CC1C2CCC3(CC2CCN1C(=O)c1ccccc1)OCCO3 (stereo not drawn) | > 100 µM | > 100 µM | > 100 µM | > 100 µM | > 100 µM | > 100 µM | > 100 µM | – | > 100 µM | – | – | – | – | – | – | – | – | –
12 | Cn1cnc([N+](=O)[O-])c1Sc1nnnn1-c1ccccc1 | 29.7 µM | 26 µM | 34.7 µM | 31.7 µM | 23.7 µM | > 100 µM | – | 30.1 µM | – | – | – | – | – | – | – | – | – | –
13 | N#C/C(=C\c1ccc(C(O)P(=O)(O)O)cc1)C(N)=O (stereo not drawn) | > 100 µM | > 100 µM | > 100 µM | – | > 100 µM | > 100 µM | > 100 µM | – | – | – | – | – | – | – | – | – | – | –
14 | CC1C(=O)O[C@H]2C1CC[C@@]1(C)[C@H](O)CC[C@@]13C[C@]2(O)OO3 (stereo partly drawn) | > 100 µM | > 100 µM | > 100 µM | > 100 µM | > 100 µM | > 100 µM | > 100 µM | > 100 µM | – | – | – | – | – | – | – | – | – | –
15 | C1COCCOCCOCCOCCO1.CC(=O)[CH-]C(C)=O.CC(=O)[CH-]C(C)=O.CC(=O)[CH-]C(C)=O.[V] | 62.3 µM | 52.8 µM | 31.6 µM | – | 21 µM | 32.6 µM | 57.9 µM | 33.2 µM | 3.26 µM | 21.3 µM | 20.6 µM | 15.6 µM | – | 5.59 µM | 15.3 µM | 1.63 µM | 20.7 µM | 15 µM
16 | Cc1ccc(Oc2ccc([N+](=O)[O-])cc2[N+](=O)[O-])c(C)c1 | > 100 µM | > 100 µM | > 100 µM | > 100 µM | > 100 µM | – | > 100 µM | > 100 µM | 89.7 µM | – | – | – | – | – | – | – | – | –
17 | CC(C)C(=O)/C=C/c1ccc(Cl)c(Cl)c1 | 29.2 µM | 30.7 µM | 36.5 µM | 36.8 µM | 31.9 µM | 28.5 µM | – | – | 33.5 µM | – | – | – | – | – | – | – | – | –
18 | CSc1ncnc2c1CCN2 | > 100 µM | – | > 100 µM | – | > 100 µM | > 100 µM | > 100 µM | – | – | – | – | > 100 µM | – | > 100 µM | > 100 µM | – | – | –
19 | CC1(O)CCC2(C#N)CCC1C2O (stereo not drawn) | > 100 µM | > 100 µM | – | > 100 µM | > 100 µM | > 100 µM | > 100 µM | > 100 µM | > 100 µM | – | – | – | – | – | – | – | – | –
